Assay results: patent publication US20090270407A1, “FUNGICIDAL ISOXAZOLIDINES” (E. I. DU PONT DE NEMOURS AND COMPANY, priority 2008, published 2009)
Like-named read-outs stand apart in the source and are kept apart here. Marks after values point to notes of the source that are not given here.

Key:
[1] = tested on: Puccinia recondita f. sp. tritici; experiment: Test B: wheat leaf rust, preventive spray on wheat seedlings, visual disease rating; settings: 100 = 100 % disease control, 0 = no disease control relative to controls
Botrytis cinerea = experiment: Test E: tomato Botrytis, preventive spray on tomato seedlings, visual disease rating; settings: 100 = 100 % disease control, 0 = no disease control relative to controls
Source text: General protocol for preparing test suspensions for Tests A-I: The test compounds were first dissolved in acetone in an amount equal to 3% of the final volume and then suspended at the desired concentration (in ppm) in acetone and purified water (50/50 mix) containing 250 ppm of the surfactant Trem® 014 (polyhydric alcohol esters). The resulting test suspensions were then used in Tests A-I. Spraying a 200 ppm test suspension to the point of run-off on the test plants was the equivalent of a rate of 500 g/ha.
The test suspension was sprayed to the point of run-off on tomato seedlings. The following day the seedlings were inoculated with a spore suspension of Botrytis cinerea (the causal agent of tomato Botrytis) and incubated in saturated atmosphere at 20° C. for 48 h, and then moved to a growth chamber at 24° C. for 3 additional days, after which time visual disease ratings were made.
(§1) All results are for 200 ppm except where followed by “*” which indicates 40 ppm.

[2] = tested on: Erysiphe graminis f. sp. tritici; experiment: Test A: wheat powdery mildew, preventive spray on wheat seedlings, visual disease rating; settings: 100 = 100 % disease control, 0 = no disease control relative to controls
Source text: (§2) General protocol for preparing test suspensions for Tests A-I: The test compounds were first dissolved in acetone in an amount equal to 3% of the final volume and then suspended at the desired concentration (in ppm) in acetone and purified water (50/50 mix) containing 250 ppm of the surfactant Trem® 014 (polyhydric alcohol esters). The resulting test suspensions were then used in Tests A-I. Spraying a 200 ppm test suspension to the point of run-off on the test plants was the equivalent of a rate of 500 g/ha. (An asterisk “*” next to the rating value indicates a 40 ppm test suspension.)
The test suspension was sprayed to the point of run-off on wheat seedlings. The following day the seedlings were inoculated with a spore dust of Erysiphe graminis f. sp. tritici (the causal agent of wheat powdery mildew) and incubated in a growth chamber at 20° C. for 8 days, after which time visual disease ratings were made.

Phytophthora infestans = assay type: in vivo; settings: 100 = 100 % disease control, 0 = no disease control relative to controls
Rhizoctonia oryzae = experiment: Test G: turf brown patch, preventive spray on creeping bent grass seedlings, visual disease rating; settings: 200 ppm; 100 = 100 % disease control, 0 = no disease control relative to controls
Experimental: The test suspension was sprayed to the point of run-off on creeping bent grass seedlings. The following day the seedlings were inoculated with a spore suspension of Rhizoctonia oryzae (the causal agent of turf brown patch) and incubated in a saturated atmosphere at 27° C. for 48 h, and then moved to a growth chamber at 27° C. for 3 days, after which time visual disease ratings were made.
(§3) A dash (−) indicates no test results. All results are for 200 ppm except where followed by “*” which indicates 40 ppm.

Septoria nodorum = experiment: Test C: wheat glume blotch, preventive spray on wheat seedlings, visual disease rating; settings: 100 = 100 % disease control, 0 = no disease control relative to controls
Alternaria solani = experiment: Test F: tomato early blight, preventive spray on tomato seedlings, visual disease rating; settings: 100 = 100 % disease control, 0 = no disease control relative to controls
Source text: as §2
The test suspension was sprayed to the point of run-off on tomato seedlings. The following day the seedlings were inoculated with a spore suspension of Alternaria solani (the causal agent of tomato early blight) and incubated in a saturated atmosphere at 27° C. for 48 h, and then moved to a growth chamber at 20° C. for 5 days, after which time visual disease ratings were made.
as §3

Plasmopara viticola = experiment: Test I: grape downy mildew, spray on grape seedlings after inoculation, visual disease rating; settings: 100 = 100 % disease control, 0 = no disease control relative to controls
Source text: as §2
Grape seedlings were inoculated with a spore suspension of Plasmopara viticola (the causal agent of grape downy mildew) and incubated in a saturated atmosphere at 20° C. for 24 h. After a short drying period, the test suspension was sprayed to the point of run-off on the grape seedlings and then moved to a growth chamber at 20° C. for 6 days, after which time the test units were placed back into a saturated atmosphere at 20° C. for 24 h. Upon removal, visual disease ratings were made.
as §1

Septoria tritici = experiment: Test D: wheat leaf blotch, preventive spray on wheat seedlings, visual disease rating; assay type: in vivo; settings: 100 = 100 % disease control, 0 = no disease control relative to controls
Source text: A dash (−) indicates no test results.

SMILES | Test B disease control rating ([1]; 200 ppm) [%] | Test E disease control rating (Botrytis cinerea; 200 ppm) [%] | Test A disease control rating ([2]; 200 ppm) [%] | Test H disease control rating (Phytophthora infestans; 200 ppm) [%] | Test G disease control rating (Rhizoctonia oryzae) [%] | Test C disease control rating (Septoria nodorum; 200 ppm) [%] | Test F disease control rating (Alternaria solani; 200 ppm) [%] | Test I disease control rating (Plasmopara viticola; 200 ppm) [%] | Test B disease control rating ([1]; 40 ppm (marked *)) | Test E disease control rating (Botrytis cinerea; 40 ppm (marked *)) | Test A disease control rating ([2]; 40 ppm (marked *)) | Test C disease control rating (Septoria nodorum; 40 ppm (marked *)) | Test D disease control rating (Septoria tritici; 40 ppm (marked *)) | Test H disease control rating (Phytophthora infestans; 40 ppm (marked *)) | Test F disease control rating (Alternaria solani; 40 ppm (marked *)) | Test I disease control rating (Plasmopara viticola; 40 ppm (marked *)) | Test D disease control rating (Septoria tritici; 200 ppm) [%]
CN1OC(C)(c2cccnc2)CC1c1ccc(Br)cc1 (racemic) [Compound 3] | 0 | 79 | 93 | 0 | – | – | – | – | – | – | – | – | – | – | – | – | –
CN1OC(C)(c2cccnc2)CC1c1ccc(Br)cc1 (racemic) [Compound 4] | 32 | 80 | 90 | 0 | 0 | 100 | 0 | 0 | – | – | – | – | – | – | – | – | –
CN1OC(C)(c2cccnc2)CC1c1ccc(C(C)(C)C)cc1 (racemic) [Compound 7] | 34 | 99 | 99 | 0 | 0 | 69 | 40 | 0 | – | – | – | – | – | – | – | – | –
CN1OC(C)(c2cccnc2)CC1c1ccc(C(C)(C)C)cc1 (racemic) [Compound 8] | 69 | 56 | 99 | 0 | 0 | 40 | 0 | 0 | – | – | – | – | – | – | – | – | –
Cc1ccc(-c2ccc(C3CC(C)(c4cccnc4)ON3C)cc2)cc1 (racemic) [Compound 14] | – | – | – | – | – | – | – | – | 0* % | 0* % | 91* % | 0* % | 0* % | 0* % | 0* % | 0* % | –
CN1OC(C)(c2cccnc2)CC1c1ccc(I)cc1 (racemic) [Compound 15] | 0 | 98 | 99 | 0 | – | 99 | 100 | 0 | – | – | – | – | – | – | – | – | 98
CN1OC(C)(c2cccnc2)CC1c1ccc(I)cc1 (racemic) [Compound 16] | 0 | 56 | 99 | 0 | – | 95 | 0 | 0 | – | – | – | – | – | – | – | – | 96
CN1OC(C)(c2cccnc2)CC1c1ccc(-c2ccc(OC(F)(F)F)cc2)cc1 (racemic) [Compound 17] | – | – | – | – | – | – | – | – | 0* % | 94* % | 100* % | 0* % | 30* % | 0* % | 15* % | 0* % | –
CN1OC(C)(c2cccnc2)CC1c1ccc(-n2cccn2)cc1 (racemic) [Compound 33] | – | – | – | – | – | – | – | – | 0* % | 39* % | 99* % | 99* % | 80* % | 0* % | 58* % | 0* % | –
Cc1ccc(-c2ccc([C@H]3C[C@@](C)(c4cccnc4)ON3C)cc2)cc1 (relative stereo) [Compound 13, rel-3-[(3R,5S)-2,5-dimethyl-3-(4′-methyl[1,1′-biphenyl]-4-yl)-5-isoxazolidinyl]pyridine] | – | – | – | – | – | – | – | – | 0* % | 99* % | 99* % | 0* % | 92* % | 0* % | 0* % | 0* % | –
CN1O[C@](C)(c2cccnc2)C[C@@H]1c1ccc(-n2ccc(C(F)(F)F)n2)cc1 (relative stereo) [Compound 35, rel-3-[(3R,5S)-2,5-dimethyl-3-[4-[3-(trifluoromethyl)-1H-pyrazol-1-yl]phenyl]-5-isoxazolidinyl]pyridine] | – | – | – | – | – | – | – | – | 100* % | 99* % | 100* % | 100* % | 99* % | 0* % | 98* % | 0* % | –
CN1OC(C)(c2cccnc2)CC1c1ccc(-n2cccn2)cc1 (centres unmarked) [Compound 34] | – | – | – | – | – | – | – | – | 0* % | 56* % | 98* % | 99* % | 88* % | 0* % | 6* % | 0* % | –
COc1cc(Br)ccc1C1CC(C)(c2cccnc2)ON1C (centres unmarked) [Compound 85] | 0 | 0 | 90 | – | – | 64 | 92 | – | – | – | – | – | – | – | – | – | 89
COc1cc(Br)ccc1C1CC(C)(c2cccnc2)ON1C (centres unmarked) [Compound 86] | 9 | 0 | 91 | – | – | 0 | 0 | – | – | – | – | – | – | – | – | – | 76
CN1OC(C)(c2cccnc2)CC1c1cccc2c1OC(F)(F)O2 (centres unmarked) [Compound 91] | 0 | 0 | 0 | – | – | 0 | 0 | – | – | – | – | – | – | – | – | – | 0
CN1OC(C)(c2cccnc2)CC1c1ccccc1Cl (centres unmarked) [Compound 92] | 0 | 0 | 0 | – | – | 0 | 0 | – | – | – | – | – | – | – | – | – | 22
CN1OC(C)(c2cccnc2)CC1c1ccccc1Cl (centres unmarked) [Compound 93] | 0 | 0 | 0 | – | – | 0 | 0 | – | – | – | – | – | – | – | – | – | 3
CN1OC(C)(c2cccnc2)CC1c1cccc(F)c1 (centres unmarked) [Compound 94] | 0 | 0 | 84 | – | – | 0 | 0 | – | – | – | – | – | – | – | – | – | 4
CN1OC(C)(c2cccnc2)CC1c1ccc(Br)cc1F (centres unmarked) [Compound 96] | 0 | 0 | 48 | – | – | 78 | 0 | – | – | – | – | – | – | – | – | – | 77
CN1OC(C)(c2cccnc2)CC1c1ccc(Br)c(F)c1 (centres unmarked) [Compound 101] | 0 | 100 | 99 | – | – | 86 | 99 | – | – | – | – | – | – | – | – | – | 68
